Biological target: OppA (main ectoATPase of M. hominis PG21) (Metamycoplasma hominis, UniProt D1J7T8)
Details: intact cells of parental strain PG21 (whole-cell ectoATPase activity, other ATPases not excluded); pH 7.5, 37 °C, 4 h, 0-3 mM ATP

Sequence of OppA (main ectoATPase of M. hominis PG21) (D1J7T8 entry or part of it): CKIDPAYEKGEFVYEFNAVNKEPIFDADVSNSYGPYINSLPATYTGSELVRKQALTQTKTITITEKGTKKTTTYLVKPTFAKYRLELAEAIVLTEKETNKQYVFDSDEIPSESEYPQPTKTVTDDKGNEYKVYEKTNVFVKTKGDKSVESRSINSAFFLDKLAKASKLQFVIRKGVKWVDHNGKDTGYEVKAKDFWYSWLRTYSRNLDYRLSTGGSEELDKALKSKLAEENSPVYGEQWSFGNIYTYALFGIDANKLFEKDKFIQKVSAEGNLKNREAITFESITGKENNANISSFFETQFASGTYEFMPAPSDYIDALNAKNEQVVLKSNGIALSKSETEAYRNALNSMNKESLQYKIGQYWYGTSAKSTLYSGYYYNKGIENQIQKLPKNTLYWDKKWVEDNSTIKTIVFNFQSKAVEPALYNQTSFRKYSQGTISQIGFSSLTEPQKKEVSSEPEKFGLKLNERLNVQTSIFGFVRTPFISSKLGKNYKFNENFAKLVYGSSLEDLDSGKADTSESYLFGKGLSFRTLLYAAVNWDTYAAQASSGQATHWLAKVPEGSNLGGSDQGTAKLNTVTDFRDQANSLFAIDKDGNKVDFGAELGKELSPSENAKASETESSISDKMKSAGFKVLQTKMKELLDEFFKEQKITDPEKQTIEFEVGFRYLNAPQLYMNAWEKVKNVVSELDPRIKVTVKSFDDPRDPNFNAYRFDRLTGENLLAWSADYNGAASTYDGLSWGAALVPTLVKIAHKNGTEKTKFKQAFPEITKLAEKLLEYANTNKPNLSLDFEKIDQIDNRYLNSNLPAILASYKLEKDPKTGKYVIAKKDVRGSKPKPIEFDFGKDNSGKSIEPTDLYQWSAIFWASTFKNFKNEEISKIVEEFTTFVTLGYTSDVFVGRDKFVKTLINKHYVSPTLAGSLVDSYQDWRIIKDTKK

Compound: Nc1ncnc2c1ncn2[C@@H]1O[C@H](COP(=O)(O)OP(=O)(O)OP(=O)(O)O)[C@@H](O)[C@H]1O [ATP]
- Km: the parental PG21 strain were tested for ATPase activity
